Patent US10959432B2, “Microbiocidal oxadiazole derivatives” (Syngenta Participations AG, priority 2016, dated 2021)

Assays:
[1] = tested on: Puccinia recondita f. sp. tritici; experiment: Fungicidal activity against Puccinia recondita f. sp. tritici / wheat / leaf disc curative (brown rust); assay type: in vivo; conditions: foliar, 200 ppm in the applied formulation, wheat leaf segments cv. Kanzler, curative (applied 1 day after inoculation), assessed 6 to 8 days after application, read-out: disease control compared to untreated control leaf disks
Procedure, shortened: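 Curative test: compound, diluted from DMSO stock into water, applied one day after spore inoculation of wheat (cv. Kanzler) leaf segments kept on agar in darkness at 19° C. and 75% RH. Climate-cabinet incubation (19° C., 75% RH, 12 h photoperiod); disease control relative to untreated read 6–8 days post-application.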

[2] = tested on: Puccinia recondita f. sp. tritici; experiment: Fungicidal activity against Puccinia recondita f. sp. tritici / wheat / leaf disc preventative (brown rust); assay type: in vivo; conditions: foliar, 200 ppm in the applied formulation, wheat leaf segments cv. Kanzler, preventative (inoculated 1 day after application), assessed 7 to 9 days after application, read-out: disease control compared to untreated control leaf disks
Procedure, shortened: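 Preventative leaf-segment test: compound sprayed at 200 ppm onto wheat (cv. Kanzler) segments, brown rust spores applied 1 day after. Kept at 19C and 75% rh under 12 h light/dark cycles; disease control versus untreated check read 7 to 9 days post-application.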

[3] = tested on: Glomerella laqenarium (Colletotrichum lagenarium); experiment: Fungicidal activity against Glomerella lagenarium (Colletotrichum lagenarium) liquid culture / cucumber / preventative (anthracnose); assay type: cell-based; conditions: Colletotrichum orbiculare; 20 ppm in the applied formulation; liquid culture in PDB, 24° C., 3 to 4 days after application; read-out: disease control compared to untreated control (inhibition of growth measured photometrically)
Procedure, shortened: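 Test compound, applied from DMSO solution, is combined with PDB containing conidia taken from cryogenic storage. After 3–4 days at 24 °C, growth is measured photometrically and antifungal activity expressed as percent relative to untreated control.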

Uromyces viciae-fabae = experiment: Fungicidal activity against Uromyces viciae-fabae / field bean / leaf disc preventative (faba-bean rust); assay type: in vivo; conditions: foliar, 288 h, 100 ppm in the applied formulation, field bean leaf discs, preventative (inoculated two hours after application), assessed 12 days after application, read-out: disease control compared to untreated control leaf discs
Protocol: Leaf disks or leaf segments of various plant species are cut from plants grown in a greenhouse. The cut leaf disks or segments are placed in multiwell plates (24-well format) onto water agar. The leaf disks are sprayed with a test solution before (preventative) or after (curative) inoculation. Compounds to be tested are prepared as DMSO solutions (max. 10 mg/ml) which are diluted to the appropriate concentration with 0.025% Tween20 just before spraying. The inoculated leaf disks or segments are incubated under defined conditions (temperature, relative humidity, light, etc.) according to the respective test system. A single evaluation of disease level is carried out 3 to 14 days after inoculation, depending on the pathosystem. Percent disease control relative to the untreated check leaf disks or segments is then calculated. General Examples of Liquid Culture Tests in Well Plates:
Example 5: Fungicidal Activity Against Uromyces viciae-fabae/Field Bean/Leaf Disc Preventative (Faba-Bean Rust)
Field bean leaf discs are placed on water agar in multiwell plates (96-well format) and 10 μl of the formulated test compound diluted in acetone and a spreader pipetted onto the leaf disc. Two hours after application leaf discs are inoculated by spraying a spore suspension on the lower leaf surface. The leaf discs are incubated in a climate cabinet at 22° C. with 18 hour day and 70% relative humidity. The activity of a compound is assessed as percent disease control compared to untreated when an appropriate level of disease damage appears in untreated check leaf disks (12 days after application).
The following compounds at 100 ppm in the applied formulation give at least 80% disease control in this test when compared to untreated control leaf discs under the same conditions, which show extensive disease development.

Phakopsora pachyrhizi = experiment: Fungicidal activity against Phakopsora pachyrhizi / soybean / leaf disc preventative (Asian soybean rust); assay type: in vivo; conditions: foliar, 200 ppm in the applied formulation, soybean leaf disks, preventative (inoculated one day after application), assessed 12 to 14 days after application, read-out: disease control compared to untreated control leaf disks
Procedure, shortened: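 Preventative test: compound applied to soybean leaf discs a day before spore inoculation of the lower surface. Discs kept at 20° C and 75% rh, first 24-36 h in darkness, then under 12 h light/day; disease control relative to untreated discs rated 12 to 14 days post-application.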

CN(Cc1ccccc1F)C(=O)c1ccc(-c2noc(C(F)(F)F)n2)cc1F [Compound 4b.9, 2-fluoro-N-[(2-fluorophenyl)methyl]-N-methyl-4-[5-(trifluoromethyl)-1,2,4-oxadiazol-3-yl]benzamide]
≥ 80%: pest or weed control at 200 ppm [1] | pest or weed control at 200 ppm [2] | inhibition at 20 ppm [3] | pest or weed control at 100 ppm (Uromyces viciae-fabae) | pest or weed control at 200 ppm (Phakopsora pachyrhizi)

CC(NC(=O)c1ccc(-c2noc(C(F)(F)F)n2)cc1F)C1(C)OCCO1 (centres unmarked) [Compound 1b.12, 2-fluoro-N-[1-(2-methyl-1,3-dioxolan-2-yl)ethyl]-4-[5-(trifluoromethyl)-1,2,4-oxadiazol-3-yl]benzamide]
≥ 80%: pest or weed control at 200 ppm [1] | pest or weed control at 100 ppm (Uromyces viciae-fabae)

O=C(NCC1COCCO1)c1ccc(-c2noc(C(F)(F)F)n2)cc1 (centres unmarked) [Compound 1a.2, N-(1,4-dioxan-2-ylmethyl)-4-[5-(trifluoromethyl)-1,2,4-oxadiazol-3-yl]benzamide]
≥ 80%: pest or weed control at 200 ppm [1] | pest or weed control at 200 ppm [2] | inhibition at 20 ppm [3] | pest or weed control at 100 ppm (Uromyces viciae-fabae) | pest or weed control at 200 ppm (Phakopsora pachyrhizi)

CC1(NC(=O)c2ccc(-c3noc(C(F)(F)F)n3)cc2)CCC1 [Compound 2a.4, N-(1-methylcyclobutyl)-4-[5-(trifluoromethyl)-1,2,4-oxadiazol-3-yl]benzamide]
≥ 80%: pest or weed control at 200 ppm [1] | pest or weed control at 200 ppm [2] | pest or weed control at 100 ppm (Uromyces viciae-fabae) | pest or weed control at 200 ppm (Phakopsora pachyrhizi)

CCCN(C(=O)c1ccc(-c2noc(C(F)(F)F)n2)cc1)C1CCN(OC)CC1 [Compound 1a.5, N-(1-methoxy-4-piperidyl)-N-propyl-4-[5-(trifluoromethyl)-1,2,4-oxadiazol-3-yl]benzamide]
≥ 80%: pest or weed control at 200 ppm [1] | inhibition at 20 ppm [3] | pest or weed control at 100 ppm (Uromyces viciae-fabae)

O=C(NCc1ccco1)c1ccc(-c2noc(C(F)(F)F)n2)cc1Cl [Compound 5b.17, 2-chloro-N-(2-furylmethyl)-4-[5-(trifluoromethyl)-1,2,4-oxadiazol-3-yl]benzamide]
≥ 80%: pest or weed control at 200 ppm [1] | pest or weed control at 200 ppm [2] | inhibition at 20 ppm [3] | pest or weed control at 100 ppm (Uromyces viciae-fabae) | pest or weed control at 200 ppm (Phakopsora pachyrhizi)

O=C(NC1CCCC1(F)F)c1ccc(-c2noc(C(F)(F)F)n2)cc1F (centres unmarked) [Compound 2b.17, N-(2,2-difluorocyclopentyl)-2-fluoro-4-[5-(trifluoromethyl)-1,2,4-oxadiazol-3-yl]benzamide]
≥ 80%: pest or weed control at 200 ppm [1] | pest or weed control at 200 ppm [2] | pest or weed control at 100 ppm (Uromyces viciae-fabae) | pest or weed control at 200 ppm (Phakopsora pachyrhizi)

O=C(NCC1COCCO1)c1ccc(-c2noc(C(F)(F)F)n2)cc1Cl (centres unmarked) [Compound 1b.13, 2-chloro-N-(1,4-dioxan-2-ylmethyl)-4-[5-(trifluoromethyl)-1,2,4-oxadiazol-3-yl]benzamide]
≥ 80%: pest or weed control at 200 ppm [1] | pest or weed control at 200 ppm [2] | pest or weed control at 100 ppm (Uromyces viciae-fabae)

CC1(C)OCC(CNC(=O)c2ccc(-c3noc(C(F)(F)F)n3)cc2F)O1 (centres unmarked) [Compound 1b.6, N-[(2,2-dimethyl-1,3-dioxolan-4-yl)methyl]-2-fluoro-4-[5-(trifluoromethyl)-1,2,4-oxadiazol-3-yl]benzamide]
≥ 80%: pest or weed control at 200 ppm [1] | pest or weed control at 200 ppm [2] | pest or weed control at 100 ppm (Uromyces viciae-fabae) | pest or weed control at 200 ppm (Phakopsora pachyrhizi)

CN(C(=O)c1ccc(-c2noc(C(F)(F)F)n2)cc1)C1CCOC1 (centres unmarked) [Compound 1a.7, N-methyl-N-tetrahydrofuran-3-yl-4-[5-(trifluoromethyl)-1,2,4-oxadiazol-3-yl]benzamide]
≥ 80%: pest or weed control at 200 ppm [1] | pest or weed control at 200 ppm [2] | pest or weed control at 100 ppm (Uromyces viciae-fabae)

O=C(NCC1CCC1)c1ccc(-c2noc(C(F)(F)F)n2)cc1 [Compound 2a.3, N-(cyclobutylmethyl)-4-[5-(trifluoromethyl)-1,2,4-oxadiazol-3-yl]benzamide]
≥ 80%: pest or weed control at 200 ppm [1] | pest or weed control at 200 ppm [2] | pest or weed control at 100 ppm (Uromyces viciae-fabae) | pest or weed control at 200 ppm (Phakopsora pachyrhizi)

CN(C(=O)c1ccc(-c2noc(C(F)(F)F)n2)cc1F)C1CCOC1 (centres unmarked) [Compound 1b.7, 2-fluoro-N-methyl-N-tetrahydrofuran-3-yl-4-[5-(trifluoromethyl)-1,2,4-oxadiazol-3-yl]benzamide]
≥ 80%: pest or weed control at 200 ppm [1] | pest or weed control at 100 ppm (Uromyces viciae-fabae)

CON1CCC(N(C)C(=O)c2ccc(-c3noc(C(F)(F)F)n3)cc2)CC1 [Compound 1a.3, N-(1-methoxy-4-piperidyl)-N-methyl-4-[5-(trifluoromethyl)-1,2,4-oxadiazol-3-yl]benzamide]
≥ 80%: pest or weed control at 200 ppm [1] | pest or weed control at 200 ppm [2] | inhibition at 20 ppm [3] | pest or weed control at 100 ppm (Uromyces viciae-fabae)

CN(CC1CCCCO1)C(=O)c1ccc(-c2noc(C(F)(F)F)n2)cc1F (centres unmarked) [Compound 1b.10, 2-fluoro-N-methyl-N-(tetrahydropyran-2-ylmethyl)-4-[5-(trifluoromethyl)-1,2,4-oxadiazol-3-yl]benzamide]
≥ 80%: pest or weed control at 200 ppm [1] | pest or weed control at 100 ppm (Uromyces viciae-fabae)

COC(=O)C1(NC(=O)c2ccc(-c3noc(C(F)(F)F)n3)cc2)CCCN(OC)C1 (centres unmarked) [Compound 1a.8, methyl 1-methoxy-3-[[4-[5-(trifluoromethyl)-1,2,4-oxadiazol-3-yl]benzoyl]amino]piperidine-3-carboxylate]
≥ 80%: pest or weed control at 200 ppm [1] | pest or weed control at 100 ppm (Uromyces viciae-fabae)

O=C(NCC1CCC1)c1ccc(-c2noc(C(F)(F)F)n2)cc1F [Compound 2b.11, N-(cyclobutylmethyl)-2-fluoro-4-[5-(trifluoromethyl)-1,2,4-oxadiazol-3-yl]benzamide]
≥ 80%: pest or weed control at 200 ppm [1] | pest or weed control at 200 ppm [2] | pest or weed control at 100 ppm (Uromyces viciae-fabae) | pest or weed control at 200 ppm (Phakopsora pachyrhizi)

Cc1ccsc1CN(C)C(=O)c1ccc(-c2noc(C(F)(F)F)n2)cc1F [Compound 5b.3, 2-fluoro-N-methyl-N-[(3-methyl-2-thienyl)methyl]-4-[5-(trifluoromethyl)-1,2,4-oxadiazol-3-yl]benzamide]
≥ 80%: pest or weed control at 200 ppm [1] | inhibition at 20 ppm [3] | pest or weed control at 100 ppm (Uromyces viciae-fabae) | pest or weed control at 200 ppm (Phakopsora pachyrhizi)

CN(C(=O)c1ccc(-c2noc(C(F)(F)F)n2)cc1)C1CCSC1 (centres unmarked) [Compound 1a.9, N-methyl-N-tetra-hydrothiophen-3-yl-4-[5-(trifluoromethyl)-1,2,4-oxadiazol-3-yl]benzamide]
≥ 80%: pest or weed control at 200 ppm [1] | pest or weed control at 100 ppm (Uromyces viciae-fabae)

CCN(C(=O)c1ccc(-c2noc(C(F)(F)F)n2)cc1)C1CCN(OC)CC1 [Compound 1a.4, N-ethyl-N-(1-methoxy-4-piperidyl)-4-[5-(trifluoromethyl)-1,2,4-oxadiazol-3-yl]benzamide]
≥ 80%: pest or weed control at 200 ppm [1] | pest or weed control at 200 ppm [2] | inhibition at 20 ppm [3] | pest or weed control at 100 ppm (Uromyces viciae-fabae)

CN(CC1OCCO1)C(=O)c1ccc(-c2noc(C(F)(F)F)n2)cc1F [Compound 1b.2, N-(1,3-dioxolan-2-ylmethyl)-2-fluoro-N-methyl-4-[5-(trifluoromethyl)-1,2,4-oxadiazol-3-yl]benzamide]
≥ 80%: pest or weed control at 200 ppm [1] | pest or weed control at 200 ppm [2] | pest or weed control at 100 ppm (Uromyces viciae-fabae) | pest or weed control at 200 ppm (Phakopsora pachyrhizi)

CC1(NC(=O)c2ccc(-c3noc(C(F)(F)F)n3)cc2F)CCC1 [Compound 2b.12, 2-fluoro-N-(1-methylcyclobutyl)-4-[5-(trifluoromethyl)-1,2,4-oxadiazol-3-yl]benzamide]
≥ 80%: pest or weed control at 200 ppm [1] | pest or weed control at 200 ppm [2] | pest or weed control at 100 ppm (Uromyces viciae-fabae) | pest or weed control at 200 ppm (Phakopsora pachyrhizi)
